Data reported in PMC2606016 (The Journal of Biological Chemistry, 2008).

Key:
HoNTT = molecular target: T1, HoNTT (Holospora obtusa, UniProt W6TTK3); conditions: 30 °C; labelled compound
T1 sequence (W6TTK3 1-514): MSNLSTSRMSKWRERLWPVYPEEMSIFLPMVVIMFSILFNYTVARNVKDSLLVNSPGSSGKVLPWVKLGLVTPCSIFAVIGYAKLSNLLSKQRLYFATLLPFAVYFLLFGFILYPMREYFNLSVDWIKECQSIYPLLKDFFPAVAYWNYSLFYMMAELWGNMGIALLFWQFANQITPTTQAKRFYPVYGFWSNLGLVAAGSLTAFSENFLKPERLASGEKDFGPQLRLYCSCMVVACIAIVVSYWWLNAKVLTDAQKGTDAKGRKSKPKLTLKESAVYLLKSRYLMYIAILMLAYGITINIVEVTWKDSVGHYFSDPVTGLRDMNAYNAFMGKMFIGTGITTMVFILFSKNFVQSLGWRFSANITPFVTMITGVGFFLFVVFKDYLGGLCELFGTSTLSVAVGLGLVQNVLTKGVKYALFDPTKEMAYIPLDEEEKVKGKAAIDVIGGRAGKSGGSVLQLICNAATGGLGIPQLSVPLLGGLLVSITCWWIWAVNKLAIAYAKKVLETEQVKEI

AtNTT1 = molecular target: T2, AtNTT1 (Arabidopsis thaliana, UniProt Q39002); conditions: 30 °C; labelled compound
T2 sequence (Q39002 87-624): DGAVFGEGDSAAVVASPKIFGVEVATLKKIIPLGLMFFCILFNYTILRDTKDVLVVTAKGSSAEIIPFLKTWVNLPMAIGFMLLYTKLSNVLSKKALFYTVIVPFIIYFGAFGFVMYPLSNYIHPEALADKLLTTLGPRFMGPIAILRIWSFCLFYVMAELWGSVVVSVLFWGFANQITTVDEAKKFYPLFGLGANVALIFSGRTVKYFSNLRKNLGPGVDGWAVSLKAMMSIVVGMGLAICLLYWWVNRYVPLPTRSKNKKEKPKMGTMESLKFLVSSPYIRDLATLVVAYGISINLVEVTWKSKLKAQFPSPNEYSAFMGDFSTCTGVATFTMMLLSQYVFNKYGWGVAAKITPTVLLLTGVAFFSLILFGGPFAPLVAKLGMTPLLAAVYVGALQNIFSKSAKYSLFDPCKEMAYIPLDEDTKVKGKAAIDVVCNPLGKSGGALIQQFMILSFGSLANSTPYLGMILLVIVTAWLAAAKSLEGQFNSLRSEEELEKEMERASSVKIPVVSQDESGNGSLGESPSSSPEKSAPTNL

Nc1ncnc2c1ncn2[C@@H]1O[C@H](COP(=O)(O)OP(=O)(O)OP(=O)(O)O)[C@@H](O)[C@H]1O [ATP]
uptake of labelled substrate into proteoliposomes (HoNTT): All recombinant carriers mediated ATP and ADP transport
uptake of labelled substrate into proteoliposomes (AtNTT1): All recombinant carriers mediated ATP and ADP transport
